The source of these data is article PMC5754411 (Cancer Chemotherapy and Pharmacology, 2017).

Where two headings read alike, the source gives them in different places.

On the set-up of series [1]: method as in PMID 28303528. The settings on record: humans, cited from earlier work.
For series [2] the following is noted: Sprague–Dawley rats; ref data not published; cited from earlier work.
A short description of a further series: clinical. As to conditions: plasma. As to the method: Signed and dated written informed consent was obtained from each patient before participation in the study and before the performance of any procedures. After informed consent was obtained, eligible participants were given the choice to be admitted to the clinical research unit on day − 1 or on day 1. A summary of the study design can be found in Fig. 1. […] Subjects continued fasting until 2 h after the start of the IV infusion, at which time a non-standardised light meal was served. The radiolabelled dose contained approximately 100 nCi (3.7 kBq) radioactivity and was administered into one arm of the subject; the contralateral arm was used for pharmacokinetic sampling and clinical laboratory blood draws. The syringe for IV drug administration was connected to a Perfusor Space Infusion Pump (B. Braun), which was set to administer 7 mL in 15 min. Blood samples were taken pre-dose and at 1, 1.5, 2 (just before start of IV infusion), 2.125 (halfway through the IV infusion), 2.25 (just before end of infusion), 2.33, 2.66, 3, 4, 6, and 12 h. Sampling was done on each morning of days 2, 3, 4, 5, 7, 9, 11, 13, 15, and 22. Plasma was divided in two sets: one set was sent to Xceleron Inc. (Germantown, MD, USA) for the determination of plasma concentrations of the ^14C-microtracer by AMS, and the other set was stored at the Antoni van Leeuwenhoek Hospital until it received pharmacokinetic analysis at the Good Laboratory Practice–licensed laboratory of the pharmacy. Plasma was separated from blood by centrifugation (3,000 rpm, 15 min, 4 °C) and was stored frozen at ≤ − 70 °C in polypropylene tubes before and after analysis. […] Vital signs assessments, haematology assessment, and blood chemistry assessments were done frequently to make sure that the patients were still in sufficient condition to remain on treatment. […] The study was approved by the local independent ethics committee and was conducted in accordance with local regulations, the Declaration of Helsinki, and International Conference on Harmonisation Good Clinical Practice Guidelines.
In brief, separation was carried out using an HPLC Acquity I Class pump (Waters, Milford, MA, USA) supplied with a SunFire C18 column (50 mm × 2.1 mm, 5 µm, Waters). Gradient elution was applied using 20 mM ammonium acetate in water (mobile phase A) and 0.1% formic acid in acetonitrile-methanol (50:50, v/v; mobile phase B). Each batch of experimental samples was run against freshly prepared calibration standards. Replicate quality control samples at three concentrations were stored and analysed alongside study samples. The analytical range was from 1 to 500 ng/mL.
Total ^14C-radioactivity concentrations in plasma samples were determined using AMS. Plasma samples were directly aliquoted into tubes containing copper oxide powder (CuO). The samples were graphitised and analysed by a Single Stage Accelerator Mass Spectrometer (SSAMS) 250 kV system (National Electrostatics Corp., Middleton, WI, USA). […] Samples were analysed by an Agilent 1200 HPLC system (Agilent Technologies, Palo Alto, CA, USA) equipped with a wavelength UV detector set to 254 nm. Separation was achieved using a Phenomenex Kinetex 2.6 µ biphenyl column (100 Å, 100 × 3.0 mm). Mobile phase A and B consisted of 20 mM ammonium acetate in water and 0.1% formic acid in acetonitrile–methanol (50:50, v/v), respectively. Column oven temperature was set at 40 °C, and run-time was 18 min. […] The fractions were graphitised and analysed by SSAMS. Each batch of experimental samples was run against freshly prepared calibration standards at seven concentrations in duplicates. Replicate quality control samples at three concentrations were stored and also analysed alongside study samples. Finally, F po was calculated as the ratio of the dose-normalised AUC of the oral dose to the IV dose.

The conditions of series [3]: beagle dogs; ref data not published; cited from earlier work.
The conditions of series [4]: cited from earlier work.

Consider `O=C(O)c1cccc2cn(-c3ccc(C4CCCNC4)cc3)nc12` (centres unmarked) [M1], for which the “Presence of metabolite in circulation” value in series [1] is reported as “substantially present in circulation”.

Take `NC(=O)c1cccc2cn(-c3ccc([C@@H]4CCCNC4)cc3)nc12` [niraparib]: the “Dose recovered as the parent compound in faeces” value in series [1] (oral radiolabelled niraparib) is “approximately 20%”. Also, the “Total orally administered dose recovered in excreta” value in series [1] (urine and faeces, radiolabelled niraparib) was “approximately 90%”. Also, the F po in series [2] was 27%; in series [3], 57%. Also, the bioavailability in the series “clinical” (human, oral, 300 mg) was found to be 72.7%. For the same compound, in “clinical” (human, po, 300 mg), the AUC(0-inf) turned out to be 47400 ng·h/mL. The compound further had an AUC(0-t) in “clinical” (human, po, 300 mg) of 46900 ng·h/mL. In “clinical” (human, po, 300 mg), this compound came in with a Cmax of 1270 ng/mL. The t max was 4 h in the series “clinical” (human, po, 300 mg, t max, oral 300 mg niraparib, n = 6, median and range); 4.01 (3.07–6.03) h in “clinical” (oral 300 mg niraparib, n = 6, median and range); “around 3.1 h” in series [4] (previous phase I dose-escalation study, range 1.5–4.1 h). In the series “clinical” (human, po, 300 mg, t ½, oral 300 mg niraparib, n = 6, sampling 22 days), this compound gave a half-life of roughly 95.6 h. The “t ½” value in series [4] (previous study, shorter sampling period) is 36.2 h.

The bioavailability is the share of a dose that reaches the circulation, judged against a reference dose that is usually intravenous. Low values mean poor availability, high ones good availability. As a reminder, the AUC(0-inf) is the area under the concentration-time curve extrapolated to infinity. A low value points to less exposure. One may read the AUC(0-t) as the area under the concentration-time curve up to a stated or last time point. A word on the Cmax: it is the peak of the concentration-time curve. The term half-life denotes the time in which the quantity being followed falls by half.
